Test results reported in ChEMBL document CHEMBL5058645, “Data for DCP probe JNJ-6204” (2022).
Activity calls are given as the source filed them. The calls are words filed in the database; no cut-off is given here.

Columns and labels:
[1] = GPCRScan assay: inhibition of GABA/PBR; design: species or system Rattus norvegicus; radioligand conc. used [nm] 0.3 – 2.0, parental cells brain tissue
[2] = biological target: T1, Casein kinase I isoform epsilon (Homo sapiens, UniProt P49674); assay: ADP-Glo
T1 sequence (P49674 whole entry, canonical isoform): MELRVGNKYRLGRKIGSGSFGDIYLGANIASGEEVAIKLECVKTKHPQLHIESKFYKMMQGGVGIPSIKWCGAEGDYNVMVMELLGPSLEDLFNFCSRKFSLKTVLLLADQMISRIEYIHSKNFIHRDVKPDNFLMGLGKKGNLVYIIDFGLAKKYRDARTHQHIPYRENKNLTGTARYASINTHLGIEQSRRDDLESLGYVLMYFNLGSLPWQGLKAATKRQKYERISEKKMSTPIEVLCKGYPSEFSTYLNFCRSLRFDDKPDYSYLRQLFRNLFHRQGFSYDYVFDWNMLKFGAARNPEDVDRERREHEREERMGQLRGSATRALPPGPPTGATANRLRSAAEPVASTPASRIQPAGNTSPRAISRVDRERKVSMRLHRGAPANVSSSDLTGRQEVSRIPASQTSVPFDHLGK

[3] = biological target: 5'-AMP-activated protein kinase catalytic subunit alpha-2 (Homo sapiens, UniProt P54646); assay: AMPKalpha2(h) Kinase panel
[4] = biological target: Casein kinase I isoform alpha (Homo sapiens, UniProt P48729); assay: CK1alpha(h) Kinase panel
[5] = biological target: T1, Casein kinase I isoform epsilon; assay: CK1epsilon(h) Kinase panel
[6] = biological target: Serine/threonine-protein kinase DCLK2 (Homo sapiens, UniProt Q8N568); assay: DCAMKL2(h) Kinase panel
[7] = biological target: Macrophage colony-stimulating factor 1 receptor (Homo sapiens, UniProt P07333); assay: Fms(h) Kinase panel
[8] = biological target: Serine/threonine-protein kinase 38-like (Homo sapiens, UniProt Q9Y2H1); assay: NDR2(h) Kinase panel
[9] = biological target: Mitogen-activated protein kinase 14 (Homo sapiens, UniProt Q16539); assay: SAPK2a(h) Kinase panel
[10] = biological target: Mitogen-activated protein kinase 11 (Homo sapiens, UniProt Q15759); assay: SAPK2b(h) Kinase panel
TGF-beta receptor type-1 = TGF-beta receptor type-1 (Homo sapiens, UniProt P36897); assay: TGFBR1(h) Kinase panel
[11] = biological target: TRAF2 and NCK-interacting protein kinase (Homo sapiens, UniProt Q9UKE5); assay: TNIK(h) Kinase panel
[12] = biological target: 5-hydroxytryptamine receptor 1A (Homo sapiens, UniProt P08908); assay: GPCRScan assay: inhibition of 5-HT1A; design: radioligand conc. used [nm] 0.5 – 1.0, parental cells stable CHO
Chain of 5-hydroxytryptamine receptor 1A (P08908 whole entry): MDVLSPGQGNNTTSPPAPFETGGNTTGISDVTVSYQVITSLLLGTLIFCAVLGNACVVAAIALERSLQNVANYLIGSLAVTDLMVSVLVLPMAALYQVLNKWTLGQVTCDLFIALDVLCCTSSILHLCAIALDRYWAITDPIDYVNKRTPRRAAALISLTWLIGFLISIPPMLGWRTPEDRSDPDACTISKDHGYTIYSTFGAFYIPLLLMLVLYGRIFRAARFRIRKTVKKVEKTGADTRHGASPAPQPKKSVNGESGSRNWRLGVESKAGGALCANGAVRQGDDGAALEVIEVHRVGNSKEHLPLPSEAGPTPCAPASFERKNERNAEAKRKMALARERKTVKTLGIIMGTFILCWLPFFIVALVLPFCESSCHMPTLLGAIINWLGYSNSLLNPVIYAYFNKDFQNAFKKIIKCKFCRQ

D(3) dopamine receptor [13] = biological target: T2, D(3) dopamine receptor (Homo sapiens, UniProt P35462); assay: GPCRScan assay: inhibition of D3; design: radioligand conc. used [nm] 0.5 – 1.8, parental cells HEKT
T2 sequence (P35462 whole entry): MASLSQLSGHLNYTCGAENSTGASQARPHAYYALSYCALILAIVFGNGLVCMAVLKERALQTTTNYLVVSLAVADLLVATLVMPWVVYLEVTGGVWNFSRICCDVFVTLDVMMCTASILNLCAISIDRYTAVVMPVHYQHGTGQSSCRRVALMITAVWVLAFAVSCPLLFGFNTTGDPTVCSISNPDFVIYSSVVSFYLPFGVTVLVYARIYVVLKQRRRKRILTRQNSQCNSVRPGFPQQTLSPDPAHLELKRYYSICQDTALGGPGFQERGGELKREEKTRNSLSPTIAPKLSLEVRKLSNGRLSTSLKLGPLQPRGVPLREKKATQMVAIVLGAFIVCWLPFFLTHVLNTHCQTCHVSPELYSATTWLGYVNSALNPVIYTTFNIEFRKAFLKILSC

[14] = biological target: T3, Sodium-dependent dopamine transporter (Homo sapiens, UniProt Q01959); assay: GPCRScan assay: inhibition of DAT; design: radioligand conc. used [nm] 3.6 – 16.0, parental cells stable HEK
T3 sequence (Q01959 whole entry, canonical isoform): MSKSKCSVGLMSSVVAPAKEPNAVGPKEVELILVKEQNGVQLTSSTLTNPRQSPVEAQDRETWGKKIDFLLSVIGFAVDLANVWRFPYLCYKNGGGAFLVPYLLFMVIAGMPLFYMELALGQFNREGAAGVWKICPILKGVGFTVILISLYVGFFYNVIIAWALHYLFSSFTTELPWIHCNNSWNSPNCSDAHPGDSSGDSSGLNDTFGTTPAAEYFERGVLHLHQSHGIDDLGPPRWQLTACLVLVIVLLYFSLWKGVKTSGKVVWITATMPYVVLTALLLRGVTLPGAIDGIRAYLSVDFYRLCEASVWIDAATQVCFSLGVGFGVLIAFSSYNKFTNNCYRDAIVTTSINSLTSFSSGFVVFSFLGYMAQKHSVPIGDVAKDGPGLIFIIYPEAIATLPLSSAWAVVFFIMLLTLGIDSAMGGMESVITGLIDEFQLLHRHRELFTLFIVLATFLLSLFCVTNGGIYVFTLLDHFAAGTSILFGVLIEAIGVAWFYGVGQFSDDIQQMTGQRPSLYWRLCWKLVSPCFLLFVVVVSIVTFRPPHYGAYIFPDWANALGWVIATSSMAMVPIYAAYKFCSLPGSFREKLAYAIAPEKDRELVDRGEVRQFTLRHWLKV

[15] = biological target: Casein kinase I isoform delta (Homo sapiens, UniProt P48730); assay: BRET whole cell binding assay
[16] = biological target: 5-hydroxytryptamine receptor 1B (Homo sapiens) (UniProt P28222); settings: Compound concentration 10.0 uM
[17] = biological target: 5-hydroxytryptamine receptor 1D (Homo sapiens) (UniProt P28221); settings: Compound concentration 10.0 uM
[18] = biological target: 5-hydroxytryptamine receptor 1E (Homo sapiens) (UniProt P28566); settings: Compound concentration 10.0 uM
[19] = biological target: 5-hydroxytryptamine receptor 2A (Homo sapiens) (UniProt P28223); settings: Compound concentration 10.0 uM
[20] = biological target: 5-hydroxytryptamine receptor 2B (Homo sapiens) (UniProt P41595); settings: Compound concentration 10.0 uM
[21] = biological target: 5-hydroxytryptamine receptor 2C (Homo sapiens) (UniProt P28335); settings: Compound concentration 10.0 uM
Chain of 5-hydroxytryptamine receptor 2C (Homo sapiens) (P28335 whole entry): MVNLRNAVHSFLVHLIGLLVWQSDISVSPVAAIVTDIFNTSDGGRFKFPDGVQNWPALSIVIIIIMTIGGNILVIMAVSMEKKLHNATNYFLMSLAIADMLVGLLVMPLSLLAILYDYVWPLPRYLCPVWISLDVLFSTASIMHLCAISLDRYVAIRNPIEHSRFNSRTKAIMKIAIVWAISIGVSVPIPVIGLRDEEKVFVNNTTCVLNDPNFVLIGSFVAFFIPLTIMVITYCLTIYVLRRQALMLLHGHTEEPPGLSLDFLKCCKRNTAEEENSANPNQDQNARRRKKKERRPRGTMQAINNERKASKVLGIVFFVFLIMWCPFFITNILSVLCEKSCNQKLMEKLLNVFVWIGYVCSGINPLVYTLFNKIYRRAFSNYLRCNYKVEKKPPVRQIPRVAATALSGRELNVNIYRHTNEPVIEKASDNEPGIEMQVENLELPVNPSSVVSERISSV

[22] = biological target: 5-hydroxytryptamine receptor 3A (Homo sapiens) (UniProt P46098); settings: Compound concentration 10.0 uM
Chain of 5-hydroxytryptamine receptor 3A (Homo sapiens) (P46098 whole entry): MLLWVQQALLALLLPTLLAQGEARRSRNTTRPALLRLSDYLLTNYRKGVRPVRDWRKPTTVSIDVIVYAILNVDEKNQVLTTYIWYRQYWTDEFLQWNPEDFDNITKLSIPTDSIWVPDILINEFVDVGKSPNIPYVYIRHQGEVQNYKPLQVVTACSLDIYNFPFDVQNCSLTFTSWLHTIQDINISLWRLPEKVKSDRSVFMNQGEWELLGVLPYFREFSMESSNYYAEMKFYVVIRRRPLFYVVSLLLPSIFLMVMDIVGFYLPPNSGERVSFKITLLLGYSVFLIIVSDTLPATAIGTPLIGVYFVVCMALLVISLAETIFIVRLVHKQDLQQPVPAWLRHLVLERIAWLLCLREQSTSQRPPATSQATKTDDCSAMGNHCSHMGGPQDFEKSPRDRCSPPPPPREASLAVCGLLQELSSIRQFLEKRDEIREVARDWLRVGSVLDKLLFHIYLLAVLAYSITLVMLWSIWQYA

[23] = biological target: 5-hydroxytryptamine receptor 5A (Homo sapiens) (UniProt P47898); settings: Compound concentration 10.0 uM
[24] = biological target: 5-hydroxytryptamine receptor 7 (Homo sapiens) (UniProt P34969); settings: Compound concentration 10.0 uM
[25] = biological target: D(1A) dopamine receptor (Homo sapiens) (UniProt P21728); settings: Compound concentration 10.0 uM
[26] = biological target: D(2) dopamine receptor (Homo sapiens) (UniProt P14416); settings: Compound concentration 10.0 uM
Chain of D(2) dopamine receptor (Homo sapiens) (P14416 whole entry): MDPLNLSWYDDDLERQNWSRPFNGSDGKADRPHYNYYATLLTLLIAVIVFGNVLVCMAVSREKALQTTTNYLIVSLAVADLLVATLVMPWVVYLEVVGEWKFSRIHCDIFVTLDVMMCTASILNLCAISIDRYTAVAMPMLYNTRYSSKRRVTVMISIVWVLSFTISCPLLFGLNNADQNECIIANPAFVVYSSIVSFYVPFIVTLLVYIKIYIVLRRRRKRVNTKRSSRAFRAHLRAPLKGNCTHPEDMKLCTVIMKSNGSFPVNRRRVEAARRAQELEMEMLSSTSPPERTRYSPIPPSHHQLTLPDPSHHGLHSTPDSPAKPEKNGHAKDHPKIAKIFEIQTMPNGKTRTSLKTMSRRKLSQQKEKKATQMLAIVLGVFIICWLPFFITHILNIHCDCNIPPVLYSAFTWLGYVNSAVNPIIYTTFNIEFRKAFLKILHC

D(3) dopamine receptor [27] = biological target: T2, D(3) dopamine receptor; settings: Compound concentration 10.0 uM
[28] = biological target: D(4) dopamine receptor (Homo sapiens) (UniProt P21917); settings: Compound concentration 10.0 uM
[29] = biological target: D(1B) dopamine receptor (Homo sapiens) (UniProt P21918); settings: Compound concentration 10.0 uM
[30] = biological target: Sodium-dependent serotonin transporter (Homo sapiens) (UniProt P31645); settings: Compound concentration 10.0 uM
[31] = biological target: Sodium-dependent noradrenaline transporter (Homo sapiens) (UniProt P23975); settings: Compound concentration 10.0 uM
[32] = biological target: T3, Sodium-dependent dopamine transporter; settings: Compound concentration 10.0 uM
[33] = biological target: Mu-type opioid receptor (Homo sapiens) (UniProt P35372); settings: Compound concentration 10.0 uM
Chain of Mu-type opioid receptor (Homo sapiens) (P35372 whole entry): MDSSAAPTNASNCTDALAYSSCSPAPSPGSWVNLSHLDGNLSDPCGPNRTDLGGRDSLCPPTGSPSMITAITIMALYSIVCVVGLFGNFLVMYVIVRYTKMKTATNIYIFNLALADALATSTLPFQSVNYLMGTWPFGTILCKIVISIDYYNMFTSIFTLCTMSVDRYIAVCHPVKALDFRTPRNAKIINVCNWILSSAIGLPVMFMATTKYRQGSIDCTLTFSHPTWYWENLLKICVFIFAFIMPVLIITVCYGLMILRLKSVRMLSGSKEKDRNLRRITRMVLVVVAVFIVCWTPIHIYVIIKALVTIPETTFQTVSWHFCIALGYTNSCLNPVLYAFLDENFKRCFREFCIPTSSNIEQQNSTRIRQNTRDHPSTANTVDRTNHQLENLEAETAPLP

[34] = biological target: Delta-type opioid receptor (Homo sapiens) (UniProt P41143); settings: Compound concentration 10.0 uM
[35] = biological target: Kappa-type opioid receptor (Homo sapiens) (UniProt P41145); settings: Compound concentration 10.0 uM
Chain of Kappa-type opioid receptor (Homo sapiens) (P41145 whole entry): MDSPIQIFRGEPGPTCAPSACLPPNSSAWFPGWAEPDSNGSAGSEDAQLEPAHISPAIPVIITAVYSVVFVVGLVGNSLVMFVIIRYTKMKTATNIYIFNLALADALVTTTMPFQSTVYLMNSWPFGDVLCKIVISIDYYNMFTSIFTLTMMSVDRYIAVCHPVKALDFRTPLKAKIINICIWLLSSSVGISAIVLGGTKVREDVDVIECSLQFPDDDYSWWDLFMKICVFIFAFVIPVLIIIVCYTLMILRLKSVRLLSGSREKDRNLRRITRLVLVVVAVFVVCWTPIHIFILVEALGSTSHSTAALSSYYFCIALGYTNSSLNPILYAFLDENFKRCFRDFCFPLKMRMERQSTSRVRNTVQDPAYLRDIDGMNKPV

[36] = biological target: Histamine H1 receptor (Homo sapiens) (UniProt P35367); settings: Compound concentration 10.0 uM
[37] = biological target: Histamine H2 receptor (Homo sapiens) (UniProt P25021); settings: Compound concentration 10.0 uM
[38] = biological target: Histamine H3 receptor (Homo sapiens) (UniProt Q9Y5N1); settings: Compound concentration 10.0 uM
[39] = biological target: Histamine H4 receptor (Homo sapiens) (UniProt Q9H3N8); settings: Compound concentration 10.0 uM
[40] = biological target: Alpha-1B adrenergic receptor (Homo sapiens) (UniProt P35368); settings: Compound concentration 10.0 uM
Chain of Alpha-1B adrenergic receptor (Homo sapiens) (P35368 whole entry): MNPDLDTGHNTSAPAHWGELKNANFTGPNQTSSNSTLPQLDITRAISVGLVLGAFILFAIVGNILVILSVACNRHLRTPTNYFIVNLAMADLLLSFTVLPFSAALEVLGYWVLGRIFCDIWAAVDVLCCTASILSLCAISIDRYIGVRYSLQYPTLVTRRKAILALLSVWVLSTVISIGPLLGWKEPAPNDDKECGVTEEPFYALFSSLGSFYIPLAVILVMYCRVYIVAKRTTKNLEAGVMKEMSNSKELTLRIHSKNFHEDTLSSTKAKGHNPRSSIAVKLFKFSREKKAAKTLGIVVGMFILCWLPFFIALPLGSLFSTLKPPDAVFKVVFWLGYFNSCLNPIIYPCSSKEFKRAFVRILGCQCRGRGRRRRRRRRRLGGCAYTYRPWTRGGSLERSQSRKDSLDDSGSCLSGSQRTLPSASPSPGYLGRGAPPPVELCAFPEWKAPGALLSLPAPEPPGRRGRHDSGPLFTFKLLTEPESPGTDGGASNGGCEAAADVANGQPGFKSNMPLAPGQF

[41] = biological target: Alpha-2A adrenergic receptor (Homo sapiens) (UniProt P08913); settings: Compound concentration 10.0 uM
[42] = biological target: Alpha-2B adrenergic receptor (Homo sapiens) (UniProt P18089); settings: Compound concentration 10.0 uM
[43] = biological target: Alpha-2C adrenergic receptor (Homo sapiens) (UniProt P18825); settings: Compound concentration 10.0 uM
[44] = biological target: Beta-1 adrenergic receptor (Homo sapiens) (UniProt P08588); settings: Compound concentration 10.0 uM
[45] = biological target: Muscarinic acetylcholine receptor M1 (Homo sapiens) (UniProt P11229); settings: Compound concentration 10.0 uM
[46] = biological target: Muscarinic acetylcholine receptor M2 (Homo sapiens) (UniProt P08172); settings: Compound concentration 10.0 uM
[47] = biological target: Muscarinic acetylcholine receptor M3 (Homo sapiens) (UniProt P20309); settings: Compound concentration 10.0 uM
[48] = biological target: Muscarinic acetylcholine receptor M4 (Homo sapiens) (UniProt P08173); settings: Compound concentration 10.0 uM
[49] = biological target: Muscarinic acetylcholine receptor M5 (Homo sapiens) (UniProt P08912); settings: Compound concentration 10.0 uM
[50] = biological target: Beta-3 adrenergic receptor (Homo sapiens) (UniProt P13945); settings: Compound concentration 10.0 uM
[51] = biological target: GABA-A receptor; anion channel (Rattus norvegicus) (UniProt O09028+P15431+P18506+P18508+P19969+P20236+P23574+P23576+P28471+P28473+P30191+P62813+P63079+P63138+Q91ZM7+Q9ES14); settings: Compound concentration 10.0 uM
[52] = biological target: Alpha-1D adrenergic receptor (Homo sapiens) (UniProt P25100); settings: Compound concentration 10.0 uM
[53] = biological target: Sigma intracellular receptor 2 (Homo sapiens) (UniProt Q5BJF2); settings: Compound concentration 10.0 uM
Chain of Sigma intracellular receptor 2 (Homo sapiens) (Q5BJF2 whole entry): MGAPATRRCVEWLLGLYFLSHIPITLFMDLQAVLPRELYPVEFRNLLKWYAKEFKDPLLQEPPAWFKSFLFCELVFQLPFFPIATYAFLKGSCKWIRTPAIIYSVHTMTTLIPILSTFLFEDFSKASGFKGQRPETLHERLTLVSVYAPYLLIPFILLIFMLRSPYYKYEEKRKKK

[54] = biological target: Sigma non-opioid intracellular receptor 1 (Homo sapiens) (UniProt Q99720); settings: Compound concentration 10.0 uM
Chain of Sigma non-opioid intracellular receptor 1 (Homo sapiens) (Q99720 whole entry): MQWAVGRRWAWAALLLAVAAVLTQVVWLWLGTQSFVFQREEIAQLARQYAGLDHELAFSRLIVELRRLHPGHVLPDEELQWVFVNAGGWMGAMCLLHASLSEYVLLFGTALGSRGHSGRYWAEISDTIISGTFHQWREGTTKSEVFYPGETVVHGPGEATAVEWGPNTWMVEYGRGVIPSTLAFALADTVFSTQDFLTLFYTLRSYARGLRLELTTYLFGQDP

[2H]C([2H])([2H])C1(C([2H])([2H])[2H])Cn2nc(-c3ccc(F)cn3)c(-c3ccnc4[nH]ncc34)c2CO1
Ki [1]: 4.53 µM
pKi [1]: 5.34
IC50 [2]: 0.137 µM (active)
IC50 [3]: > 10 µM
IC50 [4]: 0.419 µM
IC50 [5]: 0.137 µM
IC50 [6]: > 10 µM
IC50 [7]: > 10 µM
IC50 [8]: > 10 µM
IC50 [9]: > 10 µM
IC50 [10]: > 10 µM
IC50 (TGF-beta receptor type-1): > 10 µM
IC50 [11]: 1.7 µM

Cn1cc2c(-c3c(-c4ccc(F)cn4)nn4c3COC(C)(C)C4)ccnc2n1
Ki [12]: 7.66 µM
Ki (D(3) dopamine receptor [13]): 8.63 µM
Ki ([14]; read-out: Ki): 7.22 µM
Ki ([14]; read-out: pKi (converted)): 7.24 µM
IC50 [15]: > 10 µM (not active)
inhibition [16]: 3.69%
inhibition [17]: 11.3%
inhibition [18]: 11%
inhibition [19]: 0.96%
inhibition [20]: 9.41%
inhibition [21]: 2.17%
inhibition [22]: 1.67%
inhibition [23]: 5.31%
inhibition [24]: 2.11%
inhibition [25]: 5.63%
inhibition [26]: 16.9%
inhibition (D(3) dopamine receptor [27]): 71%
inhibition [28]: 48.1%
inhibition [29]: 3.57%
inhibition [30]: -2.06%
inhibition [31]: 3.24%
inhibition [32]: 72.5%
inhibition [33]: -0.34%
inhibition [34]: -4.05%
inhibition [35]: 5.15%
inhibition [36]: 12.5%
inhibition [37]: -7.88%
inhibition [38]: -2.3%
inhibition [39]: 31.6%
inhibition [40]: 35.2%
inhibition [41]: 19.6%
inhibition [42]: 9.43%
inhibition [43]: -5.28%
inhibition [44]: 14.9%
inhibition [45]: 14.2%
inhibition [46]: -5.08%
inhibition [47]: 0.71%
inhibition [48]: 0.72%
inhibition [49]: 12.5%
inhibition [50]: 12.3%
inhibition [51]: 18.2%
inhibition [52]: 12.7%
inhibition [53]: -2.71%
inhibition [54]: 13%
